# Legend:
# hypermotility in mice = experiment: Hypermotility in mice induced by amphetamine or cocaine; format: in vivo; conditions: result in words
# Excerpt: This is in full accordance with the influence of N-type calcium channel blockers on transmitter release in the central nervous system. Therefore the compounds of the invention are useful as anti-psychotics.
# [1] = test system: voltage operated calcium channels; experiment: Depolarization (potassium) induced 45Ca uptake into synaptosomes; format: biochemical, male Wistar rat; conditions: concentration inhibiting 50% of potassium stimulated uptake of 45Ca; rat cerebral cortex synaptosomes; corrected for basal uptake in non-depolarized samples
# Protocol: A crude synaptosome preparation contains small vesicles surrounded by neuronal membranes, and it is possible to study an opening of the voltage operated calcium channels in such a preparation.
# In the below described test influx of ^45Ca into synaptosomes is studied under depolarized conditions. The effect of test substances on the depolarization induced calcium uptake can thus be studied.
# The cerebral cortex from a male Wistar rat is homogenized in 20 ml ice cold 0.32M saccharose. In the following steps the temperature is kept at 0°C to 4°C. The homogenate is centrifuged at 1,000 x g for 10 minutes and the supernatant recentrifuged for 20 minutes at 18,000 x g. The obtained pellet is resuspended in 0.32M saccharose (10 ml per g of original tissue).
# Aliquots of 0.05 ml of the hereby obtained synaptosome suspension are added to glass tubes containing 0.625 ml of a NaCl buffer (136 mM Nacl, 4 Mm KCl, 0.35 mM CaCl2, 1.2 mM MgCl2, 20 mM Tris HCl, 12 mM glucose, pH 7.4) as well as 0.025 ml of different test substances in 48% ethanol. These tubes are pre-incubated for 30 minutes on ice and thereafter for 6 minutes at 37°C.
# ^45Ca uptake is initiated by addition to above glass-tubes of 0.4 ml ^45CaCl2 (specific activity: 29-39 Ci/g; […] per tube). For depolarized samples the 0.4 ml ^45CaCl2 contain KCl (145 mM) and for non-depolarized NaCl (145 mM). The samples are incubated for 15 seconds.
# The ^45Ca uptake is stopped by filtering through glass fibre filters, which are subsequently washed 3 times with an ice cold solution of 145 mM KCl, 7 mM EGTA and 20 mM Tris HCl, pH 7.4 (5.0 ml). The radioactivity on the filters are measured by liquid scintillation spectrometry. Experiments are performed in duplicate.
# Above test substances are dissolved in for example 10 ml 48% ethanol at a concentration of 0.44 mg/ml. Dilutions are made in ethanol. Test substances are tested at concentrations of 0.1, 0.3, 1, 3, 10 .... µg/ml.
# The test value is given as IC50, that is the concentration in µM of the test substances, which inhibit 50% of the potassium stimulated uptake of ^45Ca. […]
IC50 [1] [nM],SMILES,antagonism of hypermotility (hypermotility in mice)
,Nc1nc2ccccc2n1-c1cc(-c2ccccc2)ccc1O [1-(2-hydroxy-5-phenyl-phenyl)-2-aminobenzimidazole],potently antagonize
700,"COc1ccc(OC)c(-n2c(N)nc3cc(C(F)(F)F)ccc32)c1 [1-(2,5-dimethoxyphenyl)-2-amino-5-trifluoromethyl-benzimidazole]",
2000,Nc1nc2cc(C(F)(F)F)ccc2n1-c1cc(Cl)ccc1O [1-(2-hydroxy-5-chlorophenyl)-5-trifluoromethyl-2-amino-benzimidazole],
2000,Nc1nc2cc(F)ccc2n1-c1cccc(N2CCCC2)c1 [1-(5-(1-pyrrolidinyl)-phenyl)-2-amino-5-fluoro-benzimidazole],

# Reference: patent EP0520200B1, “Imidazole compounds, their preparation and use” (NEUROSEARCH A/S, priority 1991, dated 1992)
